Measured values reported in US4757084A, “2,5-diaryl tetrahydrothiophenes and analogs thereof as PAF-antagonists” (Merck & Co., Inc., priority 1985, dated 1988).

Experiments:
[1] = molecular target: PAF specific receptor binding site on rabbit platelet plasma membranes (Oryctolagus cuniculus, UniProt G1TEI7); assay: Inhibition of 3H-PAF binding to rabbit platelet plasma membrane; conditions: for inhibition at 0.03 µM: .03 μM; for inhibition at 0.1 µM: .1 μM; for inhibition at 0.3 µM: .3 μM
Experimental: A. In Vitro Assay: In vitro, they inhibit PAF-induced functions in both the cellular and tissue levels by disturbing the PAF binding to its specific receptor site. The ability of a compound of formula (I) to inhibit the PAF binding to its specific receptor binding site on rabbit platelet plasma membranes was measured by an assay recently developed by us.
The inhibition of H^3 -PAF binding to the rabbit platelet plasma membrane by a PAF-antagonist of Formula (I) was determined by a method employing isotopic labeling and filtration techniques. Generally, a series of Tris-buffered solutions of the selected antagonist at predetermined concentrations were prepared. Each of these solutions contains 1 pmole of ^3 H-PAF, a known amount of the test antagonist, and a sufficient amount of the pH 7.5 Tris-buffer solution (10 mM Tris, 0.25% bovine serum albumin, and 150 mM NaCl per ml water) to make the final volume of 1 ml. After adding into a set of test tubes each with 100 μg of the platelet plasma membrane suspension (S. B. Hwang, et al., Biochemistry, 1983) and one of the Tris-buffer solutions described above, the resulting mixture in each test tube was incubated at 0° C. for about one hour or until the reaction was complete. Two control samples, one of which (C1)contains all the ingredients described above except the antagonist and the other (C2) contains C1 plus a 1000-fold excess of unlabeled PAF, were also prepared and incubated simultaneously with the test samples. After the incubation was completed, the contents of each test tube were filtered under vacuo through a Whatman GF/C fiberglass filter and the residue washed rapidly several times with a total of 20 ml cold (0°-5° C.) Tris-buffer solution. Each washed residue was then suspended in 10 ml scintillation solution (Aquasol 2, New England Nuclear, Connecticut) and the radioactivity was counted in a Packard Tri-Carb 460CD Liguid Scintillation System. Defining the counts from a test sample as "Total binding with antagonist"; the counts from the control sample C1, as "Total binding C1 "; and the counts from the control sample C2 as "nonspecific binding C2 ", the percent inhibition of each test antagonist can be determined by the following equation: [formula]

[2] = test system: PAF-induced symptoms (increased vascular permeability, increased degranulation); assay: Oral activity in inhibiting PAF-induced symptoms in rats; format: in vivo; conditions: rat
Text: B. In vivo Assay: Protocol for Assay of Oral Activity of PAF-antagonists in inhibiting PAF-induced symptoms including decreased arterial blood flow, increased vascular permeability and increased degranulation in rats
Animals: Female, Wiston rats, 190-220 g
2. Weigh the rats the morning after fasting.
3. Suspend a test compound in 0.5% methylcellulose with 12 ounce hand homogenizer or a sonicator if necessary to yield a fine suspension. […]
4. One hour after dosing, anesthetize the rat with sodium Nembutal (i.p.).
5. One and a quarter hours after dosing, cannulate surgically the left femoral vein and artery of the rat.
6. One and a half hours after dosing, infuse through cannulated vein 0.5 nannomoles (n moles) per 200 g body weight of the rat. Take blood samples from the cannulated femoral artery at 1.5, 3, 5, 8, 11, 15, 20 25 and 30 minute intervals. After the beginning of the PAF infusion as well as just before the PAF infusion, measure the following three parameters for each blood sample:
(§1) (a) the arterial blood flow rate: determined by measuring the time to fill a pre-calibrated 14 μl capillary tube;
(b) the vascular permeability: measured by calculating the increased hematocrit which results from loss of plasma from the circulation to extra-vascular spaces.
(c) the circulatory degranulation: determined by assaying the increased plasma level of N-acetylglucosaminidase, a marker lysosomal enzyme.
7. Determine the percent change in each parameter of a blood sample at each post-PAF interval including the 30 minute interval, relative to the pre-PAF blood values.
(§2) 8. Calculate the percent inhibition by the formula: [formula]

[3] = test system: soluble immune complex induced effects; assay: Method B: oral activity in inhibiting soluble immune complex induced effects in rats; format: in vivo; conditions: rat, 50 mg/kg
Experimental: Method B: Protocol for Assay of Oral Activity of PAF antagonists in inhibiting soluble immune complex induced effects including decreased arterial blood flow, increased vascular permeability and increased degranulation in rats.
Animals: Female, wistar rats, 190-22-g
2. Weigh the rats the morning after fasting
3. Suspend a test compound in 0.5% methylcellulose with 12 ounce hand homogenizer to yield fine suspension. Administer orally each of the rats with 2 ml of suspension such that the rat received a predetermined amount of the compound varying between 2 and 50 mg compound per kg bodyweight of the rat.
4. Soluble immune complexes (I.C.) were prepared by mixing 2.4 mg human serum albumin (HSA) with 51 mg of the Igby fraction from rabbit anti-HSA antiserum in a final volume of 3.4 ml and incubating at 37° C. for 1 hour. This ratio of HSA to antibody was previously determined to be in slight antigen excess of equivalence and to result in soluble I.C. Following 37° C. incubation, the I.C. was centrifuged at 10,000 xg, 5 minute and the resulting superinstant containing the soluble I.C. stored on ice.
5. Two and one-half hours after dosing, anesthetize the rat with sodium Nembutal (i.P.)
6. Two and three-quarters hours after dosing, cannulate surgically the left femoral vein and artery of the rat. Take a blood sample from the cannulated femoral artery before the I.C. infusion and 1.5, 3, 5, 8, 11, 15, 20, 25 and 30 minutes after the I.C. infusion. Measure the following three parameter for each blood sample:
as §1
(b) the vascular permeability: measured by calculating the increased hematocit which results from loss of plasma from the circulation to extra-vascular spaces.
(c) the circulatory degranulation: determined by assaying the increased plasma level of N-acetylglucosaminidase, a marker lysopomal enzyme.
as §2

Sequence of PAF specific receptor binding site on rabbit platelet plasma membranes (G1TEI7 1-342): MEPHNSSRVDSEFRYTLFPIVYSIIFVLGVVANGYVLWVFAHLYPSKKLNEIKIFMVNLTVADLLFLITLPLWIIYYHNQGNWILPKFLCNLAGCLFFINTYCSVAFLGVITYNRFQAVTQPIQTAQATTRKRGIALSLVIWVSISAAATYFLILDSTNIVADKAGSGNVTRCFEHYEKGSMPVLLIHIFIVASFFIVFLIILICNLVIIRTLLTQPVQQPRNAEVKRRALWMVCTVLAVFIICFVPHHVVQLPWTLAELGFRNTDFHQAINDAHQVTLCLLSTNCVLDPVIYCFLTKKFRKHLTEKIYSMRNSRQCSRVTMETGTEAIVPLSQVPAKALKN

SMILES | inhibition at 1 µM [1] | inhibition at 5 µM [1] | inhibition at 0.03 µM [1] | inhibition at 0.1 µM [1] | inhibition at 0.3 µM [1] | PAF-antagonist activity (in words) [1] | % inhibition A (increased vascular permeability) ([2]; 20 mg/kg) | % inhibition B (increased degranulation) ([2]; 20 mg/kg) | further results
COc1ccc([C@H]2S[C@@H](c3ccc(OC)c(OC)c3)[C@H](C)[C@H]2C)cc1OC (relative stereo) | 53% | 82% | – | – | – | – | – | – | –
COc1ccc([C@H]2S[C@H](c3ccc(OC)c(OC)c3)[C@H](C)[C@H]2C)cc1OC (relative stereo) | 82% | – | 30% | 68% | 43% | – | – | – | –
COc1ccc([C@H]2CC[C@H](c3ccc(OC)c(OC)c3)S2)cc1OC (relative stereo) [H H 3,4-dimethoxyphenyl same as Ar trans, trans-2,5-bis-(3,4-dimethoxyphenyl)tetrahydrothiophene] | 100% | – | 31% | 43% | 83% | – | – | – | –
COc1cc([C@H]2CC[C@H](c3cc(OC)c(OC)c(OC)c3)S2)cc(OC)c1OC (relative stereo) [trans-2,5-bis (3,4,5-trimethoxyphenyl) tetrahydrothiophene] | 100% | – | 69% | 95% | 100% | most active PAF-antagonists | 85% | 83% | % inhibition A (increased vascular permeability) ([2]; 1 mg/kg): 20%; % inhibition B (increased degranulation) ([2]; 1 mg/kg): 49%; % inhibition A (increased vascular permeability) ([2]; 5 mg/kg): 58%; % inhibition B (increased degranulation) ([2]; 5 mg/kg): 60%; % inhibition A (increased vascular permeability) ([2]; 40 mg/kg): 81%; % inhibition B (increased degranulation) ([2]; 40 mg/kg): 81%; % inhibition of decreased arterial blood flow [3]: 40%; % inhibition of increased degranulation [3]: 40%; % inhibition of increased vascular permeability [3]: 73%
COc1cc([C@H]2CC[C@H](c3cc(OC)c(OC)c(OC)c3)S2)cnc1OC (relative stereo) [trans-2-(3,4,5-trimethoxyphenyl)-5-(5,6-dimethoxy-3-pyridyl)tetrahydrothiophene] | 80% | 96% | – | – | – | most active PAF-antagonists | – | – | –
COc1ccc([C@@H]2CC[C@H](c3ccc(OC)c(OC)c3)S2)cc1OC [H H 3,4-dimethoxyphenyl same as Ar cis, cis-2,5-bis-(3,4-dimethoxyphenyl)tetrahydrothiophene] | 62% | – | – | 25% | 41% | – | 41% | 35% | –
